Results as given in publication PMC11714206, “Massively Parallel Screening of Toll/Interleukin‐1 Receptor (TIR)‐Derived Peptides Reveals Multiple Toll‐Like Receptors (TLRs)‐Targeting Immunomodulatory Peptides” (Advanced Science, 2024).

Target: T1, MyD88^TIR (Homo sapiens, UniProt Q99836)
T1 construct: MyD88 (residues 148–296); 6xHis; made in house; host or cells: E. coli BL21 (DE3)
Experiment: T‐Surf phage library (P8 and P3) selection against MyD88^TIR, four rounds, NGS read counts
Type: binding
Settings: for P8_MyD88 Rank (after) / P8_MyD88 Rank (before): P8 library; for P3_MyD88 Rank (after) / P3_MyD88 Rank (before): P3 library; for Population: P8_MyD88 pool: P8 T-Surf phage library, 4th round of selection against MyD88 TIR, share of NGS reads
Outline: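 Library of 190 946 TIR‐derived peptides on P8 or P3 was panned on immobilized TIR domain coated at 5 µg mL^−1, BSA‐blocked, 1 h binding at RT, PBS/0.5% Tween‐20 washes, HCl elution, TG1 amplification. Fourth‐round pools were PCR‐barcoded, sequenced (100 bp paired‐end, Phred ≥30), and peptides ranked by read counts.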

[1] = P8_MyD88: rank by NGS read count after grouping
[2] = P8_MyD88: rank by NGS read count before grouping
[3] = selection against MyD88, rank by count after grouping
[4] = selection against MyD88, rank by count before grouping
[5] = P3_MyD88: rank by count after grouping
[6] = P3_MyD88: rank by count before grouping
[7] = 4R selection against MyD88, rank after grouping
[8] = 4R selection against MyD88, rank before grouping
[9] = selection against MyD88 TIR, rank by count after grouping
[10] = selection against MyD88 TIR, rank by count before grouping
[11] = P8_MyD88: rank by count after grouping
[12] = P8_MyD88: rank by count before grouping
[13] = selection against MyD88, rank after grouping
[14] = selection against MyD88, rank before grouping

T1 sequence (Q99836 148-296): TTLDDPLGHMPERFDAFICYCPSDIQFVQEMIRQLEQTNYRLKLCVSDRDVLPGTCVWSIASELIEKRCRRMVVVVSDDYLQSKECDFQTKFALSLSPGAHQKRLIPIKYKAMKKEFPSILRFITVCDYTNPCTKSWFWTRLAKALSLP

DPKDLQWFYERLVSLF
Rank (after) [1]: 1027 | Rank (before) [2]: 3043

YASSWWLRELLQIA
P8_MyD88 Rank (after) [3]: 686 | P8_MyD88 Rank (before) [4]: 1851

YAFTGHLHRYLVQPGESVC
Rank (after) [5]: 456 | Rank (before) [6]: 1515

GRYDELFMTETDERKC
P3_MyD88 Rank (after) [7]: 603 | P3_MyD88 Rank (before) [8]: 1852

DWVYNELIAHLENTEH
P8_MyD88 Rank (after) [9]: 204 | P8_MyD88 Rank (before) [10]: 306

YTALTNSGCPTFCVIA
Rank (after) [5]: 444 | Rank (before) [6]: 1694

WFWDKQKYTLPHRYEP
P3_MyD88 Rank (after) [7]: 583 | P3_MyD88 Rank (before) [8]: 1418

DPQDLDWFYERLVILF
Population: 0.0131%

DPQDLEWFYERLVSLFL
P8_MyD88 Rank (after) [9]: 244 | P8_MyD88 Rank (before) [10]: 2882

SFTDHLYAALVQAGIL
Rank (after) [11]: 126 | Rank (before) [12]: 137 | Population: 0.0123%

GFLYQAFAREGLWRLLELSKK
Rank (after) [5]: 172 | Rank (before) [6]: 912

WALDELLRILY
Population: 0.01%

YASSSWALDELWLILEQR
Rank (after) [1]: 961 | Rank (before) [2]: 1883

DFRSHLIETFGRMFIN
Rank (after) [11]: 465 | Rank (before) [12]: 2370

YAFTGHFQRYLVQRGV
Rank (after) [5]: 422 | Rank (before) [6]: 1485

PQVVACFFQRLESMIL
Rank (after) [1]: 871 | Rank (before) [2]: 3403

KNLLNALMSKNIRTFM
P3_MyD88 Rank (after) [7]: 622 | P3_MyD88 Rank (before) [8]: 3789

DPQDLDWIYERLVCLF
P8_MyD88 Rank (after) [3]: 732 | P8_MyD88 Rank (before) [4]: 2830

YYLDPSHLRKQSGW
P3_MyD88 Rank (after) [3]: 720 | P3_MyD88 Rank (before) [4]: 1453

LGYHWIDLGYFVGIED
P8_MyD88 Rank (after) [3]: 767 | P8_MyD88 Rank (before) [4]: 3249

DVVCDYLLPNLEGPAG
P8_MyD88 Rank (after) [7]: 606 | P8_MyD88 Rank (before) [8]: 2555

RSFREGPWRLLELSKK
Rank (after) [5]: 414 | Rank (before) [6]: 2694

HLLKEFYKKQITAFKD
P3_MyD88 Rank (after) [9]: 194 | P3_MyD88 Rank (before) [10]: 2773

IDDEHLTYLGRLLLSR
P8_MyD88 Rank (after) [7]: 580 | P8_MyD88 Rank (before) [8]: 3649

RTLFENLWESVYNISQ
P3_MyD88 Rank (after) [3]: 690 | P3_MyD88 Rank (before) [4]: 2633

AVDKETDKIQTPLKAQ
Rank (after) [5]: 390 | Rank (before) [6]: 1919

LRYDDPWFWEKLVFAM
P8_MyD88 Rank (after) [9]: 237 | P8_MyD88 Rank (before) [10]: 416

EWIREQLRPALKNVC
P3_MyD88 Rank (after) [13]: 520 | P3_MyD88 Rank (before) [14]: 2142

DPQDLAWFSERLVSQF
P8_MyD88 Rank (after) [13]: 551 | P8_MyD88 Rank (before) [14]: 2728

LAIIGLIGSILWALK
P8_MyD88 Rank (after) [9]: 210 | P8_MyD88 Rank (before) [10]: 492

TYLWWVEDERGQEYFW
P8_MyD88 Rank (after) [9]: 221 | P8_MyD88 Rank (before) [10]: 370

SSTWALDELERILEYM
P8_MyD88 Rank (after) [9]: 198 | P8_MyD88 Rank (before) [10]: 294

NFANSSWALDELWLIL
Rank (after) [11]: 132 | Rank (before) [12]: 145 | Population: 0.0116%

QDLEQFYERLISRILQ
Rank (after) [11]: 113 | Rank (before) [12]: 121 | Population: 0.0181%

DPQDLDWLYERPVSQF
P8_MyD88 Rank (after) [13]: 552 | P8_MyD88 Rank (before) [14]: 2816

YASCDDFDYYLETAVLLRHL
P8_MyD88 Rank (after) [13]: 570 | P8_MyD88 Rank (before) [14]: 1770

YTALTNSGCHTFRVND
P3_MyD88 Rank (after) [3]: 689 | P3_MyD88 Rank (before) [4]: 1657
